According to article PMC9103715, “New Panx-1 Blockers: Synthesis, Biological Evaluation and Molecular Dynamic Studies” (International Journal of Molecular Sciences, 2022):
Entries after “also recorded” stand apart in the source; their conditions may differ.

Legend:
[1] = target: T1, Panx-1 channels (Mus musculus, UniProt Q9JIP4); assay: Voltage clamp on Xenopus laevis oocytes expressing Panx-1 channels; format: cell-based; conditions: for IC50: dose-response curves, Panx1-mediated membrane currents in oocytes; for % inhibition of Panx1-mediated membrane currents: Figure 4 dose-response plot, concentration not printed in the legend
T1 construct: expressed in transfected cells; host or cells: Xenopus laevis oocytes injected with in vitro-transcribed mRNA
T1 sequence (Q9JIP4 whole entry): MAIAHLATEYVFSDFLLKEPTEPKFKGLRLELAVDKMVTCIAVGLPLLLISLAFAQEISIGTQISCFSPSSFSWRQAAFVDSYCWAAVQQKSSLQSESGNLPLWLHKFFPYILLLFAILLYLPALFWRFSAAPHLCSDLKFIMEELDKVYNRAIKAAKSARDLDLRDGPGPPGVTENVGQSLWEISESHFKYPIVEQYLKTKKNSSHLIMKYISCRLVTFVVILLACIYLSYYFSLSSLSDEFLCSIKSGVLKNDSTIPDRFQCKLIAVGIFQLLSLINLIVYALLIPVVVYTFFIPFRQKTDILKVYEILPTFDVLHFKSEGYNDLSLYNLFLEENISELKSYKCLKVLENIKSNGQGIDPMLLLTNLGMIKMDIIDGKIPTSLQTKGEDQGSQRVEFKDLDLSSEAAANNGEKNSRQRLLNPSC

[2] = target: T1, Panx-1 channels; assay: as above; format: cell-based; conditions: for I (%) inhibition of Panx-1 currents / inhibition at 50 µM: 50 µM, voltage clamp, Xenopus laevis oocytes expressing Panx-1 channels; for inhibition at 50 µM: read-out: I (%) inhibition of Panx-1 currents; for classification as active or inactive Panx-1 blocker: grouping chosen for the virtual screening
Procedure: All new products were screened as Panx-1 blockers at the dose of 50 µM using the Voltage Clamp technique on Xenopus Laevis oocytes expressing Panx-1 channels. The membrane potential of the cells was held at -60 mV and voltage steps to +60 mV were applied to induce membrane currents. To verify that Panx-1 channels carried the currents, in each experiment 100 µM carbenoxolone (CBX) was applied. At this concentration, CBX is known to yield 100% inhibition of Panx-1 activity. If present, leak currents resistant to CBX were subtracted from the total current to assess % inhibition mediated by the tested compounds. Table 1 and Table 2 report the electrophysiological results of naphthalene-2-sulphonic acid derivatives bearing at position 5 an amino- (3a–e, 4 and 5) or amide group (7a–g, 8 and 9) and of compound 13.
Oocytes of Xenopus laevis are prepared as previously described in [39] where the oocytes are isolated from surgically removed ovary segments incubated in an Oocyte Ringe solution Ca2-free (OR2: in mM: 82.5 NaCl, 2.5 KCl, 1.0 MgCl2, […], 1.0 Na2HPO4 e 5.0 HEPES, pH 7.5) with 2 mg/mL of collagenase and antibiotics (10,000 U/mL penicillin and 10 mg/mL of streptomycin) stirred at room temperature for 3 h. After being washed with OR2, oocytes free of follicular cells and that have a uniform pigmentation are chosen and stored in OR2 for 18 °C.
Mouse pannexin1, in pCS2, was linearised with NotI. In vitro transcription was performed with the polymerase SP6, using the Message Machine kit (Ambion). mRNA was quantified by absorbance (260 nm), and the proportion of full-length transcripts was checked by agarose gel electrophoresis. In vitro-transcribed mRNA (~20 nL) was injected into Xenopus laevis oocytes.
Whole-cell membrane currents of oocytes were measured using a two-electrode voltage clamp (Gene Clamp 500B, Axon Instruments/Molecular Devices Sunnyvale, Union City, CA, USA). Glass pipettes were pulled using a P-97 Flaming/Brown type puller (Sutter, Novato, CA, USA). The recording chamber was perfused continuously with frog Ringer (OR) solution (in mM: 82.5 NaCl, 2.5 KCl, 1 CaCl2, 1 MgCl2, 1 Na2HPO4, and 5 HEPES, pH 7.5).
Membrane conductance was determined using voltage pulses, and the pulse-induced current amplitudes were divided by the amplitudes of the voltage steps. For calculation of % inhibition, leak currents were subtracted. Typically, leak currents after the interventions were smaller than at the beginning of the experiment and this smaller value was used for the subtraction to avoid overestimation of the inhibitory effect. For an independent measure of the leak current, oocytes at the end of the experiment were exposed to 100 µM carbenoxolone, which is known to close Panx1 channels 100%. Oocytes expressing Panx1 were held at −60 mV, and pulses to +60 mV were applied to transiently open the channels by means of the voltage gate. Pulses 5 s in duration were applied at 0.1 Hz for current and conductance measurements.

[3] = system: oxaliplatin-induced thermal allodynia in mice; assay: Cold plate test in mouse model of oxaliplatin-induced neuropathic pain; format: in vivo; conditions: oxaliplatin-treated mice; for time of maximum anti-allodynic effect: 3 nmol intrathecally; for pain threshold (licking latency), Cold plate test: 1 nmol and 3 nmol intrathecally, vs oxaliplatin + vehicle
Procedure: The two selected Panx-1 blockers, 4 and 13, were tested in a mouse model of oxaliplatin-induced neuropathic pain that involves this channel. Oxaliplatin is a third-generation platinum-based chemotherapeutic agent that, similar to other platinum-based compounds, interferes with the proliferation of tumor cells, leading to cancer cell destruction […] Recent studies have highlighted the efficacy of selective Panx1 antagonists in […] evoked by repeated administrations of antineoplastic drug, making Panx1 a possible therapeutic target in reducing chemotherapeutic-induced neuropathic pain [16, 23]. In this experiment we tested the anti-hypersensitivity properties of two novel Panx1 antagonists in a mouse model of oxaliplatin-induced thermal allodynia. […] This time delay is reported here as licking latency (s). The two compounds were acutely injected intrathecally at 1 nmol and 3 nmol in oxaliplatin-treated animals. […] The effect recorded was dose-dependent (Figure 5b).
Eight-week-old male CD-1 mice (Envigo, Varese, Italy) weighing approximately 20–25 g at the beginning of the experimental procedure were used. Animals were housed in the Centro Stabulazione Animali da Laboratorio (CeSAL; University of Florence, Italy) and used at least 1 week after their arrival; 10 mice were housed per cage (size 26 cm × 41 cm). Animals were fed a standard laboratory diet and tap water ad libitum and kept at 23 ± 1 °C with a 12 h light/dark cycle (light at 7 a.m.).
Mice treated with oxaliplatin (Carbosynth, Pangbourne, UK; 2.4 mg kg^−1) were administered intraperitoneally (i.p.) for 2 weeks Oxaliplatin was dissolved in a 5% glucose solution. Control animals received an equivalent volume of vehicle. Behavioural tests were performed starting from day 14, when neuropathy was well established.
Compounds 4 and 13 were intrathecally (i.t.) injected in conscious mice as previously described. Compound 4 was dissolved in sterile saline solution while compound 13 was dissolved in a mixture consisting of PEG400, TWEEN 20 and sterile saline solution (1:1:3, respectively). Briefly, a 25 µL Hamilton syringe connected to a 30-gauge needle was intervertebrally inserted between the L4 and L5 region, and advanced 6 mm into the lumbar enlargement of the spinal cord. Behavioural measurements were performed before and 15 min, 30 min, 45 min, and 60 min after the administration of compounds.
Thermal allodynia was assessed using the Cold-plate test. With minimal animal-handler interaction, mice were taken from home-cages, and placed onto the surface of the cold-plate (Ugo Basile, Varese, Italy) maintained at a constant temperature of 4 ± 1 °C. Ambulation was restricted by a cylindrical plexiglas chamber (diameter: 10 cm, height: 15 cm), with open top. A timer controlled by foot peddle began timing response latency from the moment the mouse was placed onto the cold-plate. Pain-related behaviour (licking of the hind paw) was observed, and the time (seconds) of the first sign was recorded. The cut-off time of the latency of paw lifting or licking was set at 30 s.
Figure 5 Pain-relieving effect of (a) 4 and (b) 13 on oxaliplatin-induced thermal allodynia in mice. Cold plate test. […] Pain-related behavior (i.e., lifting and licking of the hind paw) was observed and the time (s) of the first sign was recorded. ** p < 0.01 vs. vehicle + vehicle treated animals; ^ p < 0.05 and ^^ p < 0.01 vs. oxaliplatin + vehicle treated animals. […]

[4] = system: Panx-1; conditions: cited from earlier work; for IC50: Panx-1 blockers, reference compounds

O=C(Nc1cccc2cc(S(=O)(=O)O)ccc12)c1ccc(S(=O)(=O)N(Cc2ccccc2)Cc2ccccc2)cc1 [Compound 7d, 5-[4-(N,N-dibenzylsulfamoyl)benzamido]naphthalene-2-sulfonic acid]
IC50 [1]: 15.1 µM
I (%) inhibition of Panx-1 currents [2]: 75.2 ± 5.90 (4) %
inhibition at 50 µM [2]: 75%

O=C(O)c1ccc(CNc2cccc3cc(S(=O)(=O)O)ccc23)cc1 [Compound 4, 4-[(6-Sulfonaphthalen-1-yl)aminomethyl]benzoic Acid]
time of maximum anti-allodynic effect [3]: 45 min
time after injection from which the enhancement of pain threshold is significant ([3]; intrathecal injection): 30 min
pain threshold (licking latency), Cold plate test [3]: significantly increase the mouse pain threshold; also recorded: significant enhancement of the pain threshold
IC50 [1]: 8.8 µM
inhibition at 50 µM [2]: 97 ± 1.5%

O=S(=O)(O)c1ccc2c(NCCCc3ccccc3)cccc2c1 [Compound 3c, 5-[(3-Phenylpropyl)amino]naphthalene-2-sulfonic acid]
IC50 [1]: 9 µM
inhibition at 50 µM [2]: 66.7 ± 5.5%

CCCN(CCC)S(=O)(=O)c1ccc(C(=O)O)cc1 [Probenecid, reference compound]
IC50 [4]: 150 µM
inhibition at 50 µM [2]: 29%
classification as active or inactive Panx-1 blocker [2]: inactive

O=C(O)c1cc([N+](=O)[O-])ccc1NCCCc1ccccc1 [NPPB, 5-nitro-2-(3-phenylpropylamino)benzoic acid]
IC50 [4]: 50 µM

CCN(Cc1cccc(S(=O)(=O)O)c1)c1ccc(C(=C2C=CC(=[N+](CC)Cc3cccc(S(=O)(=O)O)c3)C=C2)c2ccccc2S(=O)(=O)[O-])cc1 [Brilliant Blue FCF]
IC50 [4]: 0.27 µM

CCCN(CCC)S(=O)(=O)c1ccc(-n2ncc(C(=O)O)c2N)cc1 [Compound 19b, 5-Amino-1-(4-(N,N-dipropylsulfamoyl)phenyl)-1H-pyrazole-4-carboxylic acid]
melting point: 167 to 168 °C
inhibition at 50 µM [2]: 21 ± 7.8%

CCCCNS(=O)(=O)c1ccc(-n2ncc(C(=O)O)c2N)cc1 [Compound 18c, 5-Amino-1-(4-(N-butylsulfamoyl)phenyl)-1H-pyrazole-4-carboxylic acid]
melting point: > 300 °C
inhibition at 50 µM [2]: 10.3 ± 4.9%

O=C(O)c1ccc(CN(Cc2ccc(C(=O)O)cc2)S(=O)(=O)c2ccc(C(=O)O)cc2)cc1 [Compound 13, 4,4′-{{[(4-Carboxyphenyl)sulfonyl]azanediyl}bis(methylene)}dibenzoic acid]
time of maximum anti-allodynic effect [3]: 45 min
pain threshold (licking latency), Cold plate test [3]: significantly increase the mouse pain threshold; also recorded: significant increase of the mouse pain threshold
% inhibition of Panx1-mediated membrane currents [1]: 100%
IC50 [1]: 1.2 µM
I (%) inhibition of Panx-1 currents [2]: 93.7 ± 2.3%
inhibition at 50 µM [2]: 94%

CCCNS(=O)(=O)c1ccc(-n2ncc(C(=O)O)c2N)cc1 [Compound 18b, 5-Amino-1-(4-(N-propylsulfamoyl)phenyl)-1H-pyrazole-4-carboxylic acid]
melting point: 215 to 218 °C
inhibition at 50 µM [2]: 4 ± 2.3%

O=C(O)c1cnn(-c2ccc(S(=O)(=O)NCCc3ccccc3)cc2)c1NCCc1ccccc1 [Compound 29, 5-(Phenethylamino)-1-(4-(N-phenethylsulfamoyl)phenyl)-1H-pyrazole-4-carboxylic acid]
melting point: 105 to 107 °C
inhibition at 50 µM [2]: 25.3 ± 0.9%

Nc1c(C(=O)O)cnn1-c1ccc(S(=O)(=O)N(Cc2ccccc2)Cc2ccccc2)cc1 [Compound 24, 5-Amino-1-(4-(N,N-dibenzylsulfamoyl)phenyl)-1H-pyrazole-4-carboxylic acid]
melting point: 168 to 170 °C
I (%) inhibition of Panx-1 currents [2]: 42.7 ± 2.4 (4) %
inhibition at 50 µM [2]: 42%
classification as active or inactive Panx-1 blocker [2]: inactive

CCCNc1c(C(=O)O)cnn1-c1ccc(S(=O)(=O)N(CCC)CCC)cc1 [Compound 19c, 1-(4-(N,N-dipropylsulfamoyl)phenyl)-5-(propylamino)-1H-pyrazole-4-carboxylic acid]
melting point: 170 to 172 °C
inhibition at 50 µM [2]: 28 ± 6.9%

CC1(C)[C@@H](OC(=O)CCC(=O)O)CC[C@]2(C)[C@H]3C(=O)C=C4[C@@H]5C[C@@](C)(C(=O)O)CC[C@]5(C)CC[C@@]4(C)[C@]3(C)CC[C@@H]12 [Carbenoxolone, carbenoxolone]
inhibition of Panx-1 activity ([4]; 100 µM carbenoxolone): 100%
IC50 [4]: 10 µM
% inhibition of Panx1-mediated membrane currents [1]: 100%

CCCCN(CCCC)S(=O)(=O)c1ccc(C(=O)Nc2cccc3cc(S(=O)(=O)O)ccc23)cc1 [Compound 7c, 5-[4-(N,N-dibutylsulfamoyl)benzamido]naphthalene-2-sulfonic acid]
IC50 [1]: 40.4 µM
inhibition at 50 µM [2]: 67.8 ± 2.2%

Nc1c(C(=O)O)cnn1-c1ccc(S(=O)(=O)N(CCc2ccccc2)Cc2ccccc2)cc1 [Compound 30, 5-Amino-1-(4-(N-benzyl-N-phenethylsulfamoyl)phenyl)-1H-pyrazole-4-carboxylic acid]
melting point: 263 to 266 °C (dec.)
inhibition at 50 µM [2]: 30 ± 7.2%

Nc1c(C(=O)O)cnn1-c1ccc(S(=O)(=O)NCc2ccccc2)cc1 [Compound 23, 5-Amino-1-(4-(N-benzylsulfamoyl)phenyl)-1H-pyrazole-4-carboxylic acid]
melting point: 207 to 210 °C
inhibition at 50 µM [2]: 16.3 ± 6.4%
